We go through 16 compounds from ChEMBL document CHEMBL1130395, “Cannabinol derivatives: binding to cannabinoid receptors and inhibition of adenylylcyclase” (J Med Chem, 1997).

For orientation: EC50 means the concentration giving half of the maximal effect. By Ki is commonly meant the dissociation constant of the complex between target and ligand, obtained from inhibition or displacement. Broadly, the inhibition is the share of the control response that was lost under treatment.

Active and inactive are the calls of the source. No cut-off for these calls is given here.

Assay [1] addresses T1, Cannabinoid receptor 2 (Homo sapiens, UniProt P34972). Kind of assay: Effective concentration for inhibition of human Cannabinoid receptor 2-mediated adenylyl cyclase using African green monkey (COS-7) cells transfected with the cDNA of human CB2 receptor. It is filed as functional.
Assay [2] deals with T2, Cannabinoid receptor 1 (Rattus norvegicus, UniProt P20272). Description: Effective concentration for inhibition of Cannabinoid receptor 1-mediated adenylyl cyclase activity using African green monkey (COS-7) cells transfected with the cDNA of rat CB1 receptor. It is filed as functional.
For assay [3], the target named is T2, Cannabinoid receptor 1. Kind of assay: Binding affinity for Cannabinoid receptor 1 using African green monkey (COS-7) cells transfected with the cDNA of […].
Assay [4] addresses T1, Cannabinoid receptor 2. Description: Binding affinity to Cannabinoid receptor 2 using African green monkey (COS-7) cells Chinese hamster ovary(CHO) cells transfected with the cDNA of human CB2. In kind it is cell-based.
In assay [5] the target is T2, Cannabinoid receptor 1. Kind of assay: Binding to Cannabinoid receptor 1 using African green monkey (COS-7) cells transfected with the cDNA of rat CB1. It is filed as cell-based.
Assay [6] concerns the target T1, Cannabinoid receptor 2. Kind of assay: Inhibitory activity of 1 uM against human Cannabinoid receptor 2-mediated adenylyl cyclase using African green monkey (COS-7) cells transfected with the cDNA of human CB2 receptor. In kind it is functional, cell-based.
Assay [7] concerns the target T1, Cannabinoid receptor 2. Description: Inhibitory affect of 1 uM of the substance against African green monkey (COS-7) cells Chinese hamster ovary(CHO) cells transfected with the cDNA of human Cannabinoid receptor 2. It is filed as cell-based.
Assay [8] has as its target Cannabinoid receptor 1 (Rattus norvegicus) (UniProt P20272). Kind of assay: Inhibitory affect of 1 uM of the substance against African green monkey (COS-7) cells transfected with the cDNA of rat Cannabinoid receptor 1. In kind it is cell-based.
Assay [9] has the same target. Description: Inhibitory affect of 1 uM of the substance against Cannabinoid receptor 1-mediated adenylyl cyclase using African green monkey (COS-7) cells transfected with the cDNA of rat CB1 receptor. In kind it is functional, cell-based.
For assay [10], the target named is T1, Cannabinoid receptor 2. Description: Inhibitory affect of 1 uM against African green monkey (COS-7) cells Chinese hamster ovary(CHO) cells transfected with the cDNA of human Cannabinoid receptor 2. In kind it is cell-based.
Assay [11] addresses Cannabinoid receptor 1 (Rattus norvegicus) (UniProt P20272). Kind of assay: Inhibitory affect of 1 uM againstAfrican green monkey (COS-7) cells transfected with the cDNA of rat Cannabinoid receptor 1. In kind it is cell-based.
For assay [12], the target named is T1, Cannabinoid receptor 2. Kind of assay: Inhibitory affect of 1 uM of the substance against human Cannabinoid receptor 2-mediated adenylyl cyclase using African green monkey (COS-7) cells transfected with the cDNA of human CB2 receptor; No inhibition. In kind it is functional, cell-based.
For assay [13], the target named is T2, Cannabinoid receptor 1. Kind of assay: Binding affinity of compound towards Cannabinoid receptor 1 in african green monkey COS-7 cells transfected with cDNA of rat CB1 receptor. In kind it is cell-based.
For assay [14], the target named is T2, Cannabinoid receptor 1. Kind of assay: Binding affinity of compound towards Cannabinoid receptor 1 in rat brain synaptosomal membrane preparations. In kind it is cell membranes.
In assay [15] the target is T1, Cannabinoid receptor 2. Description: Binding affinity of compound towards Cannabinoid receptor 2 in african green monkey COS-7 cells transfected with cDNA of human CB2 receptor. In kind it is cell-based.
For assay [16], the target named is T1, Cannabinoid receptor 2. Kind of assay: Inhibitory effect of 1 uM of the substance against African green monkey (COS-7) cells Chinese hamster ovary(CHO) cells transfected with the cDNA of human Cannabinoid receptor 2. It is filed as cell-based.
In assay [17] the target is Cannabinoid receptor 1 (Rattus norvegicus) (UniProt P20272). Description: Inhibitory affect of 1 uM 0f the substance against cDNA of rat Cannabinoid receptor 1.
The target is the same in assay [18]. Description: Inhibitory affect of 1 uM of the substance against Cannabinoid receptor 1-mediated adenylyl cyclase using African green monkey (COS-7) cells transfected with the cDNA of rat CB1 receptor; No inhibition. It is filed as functional, cell-based.

T1 sequence (P34972 whole entry): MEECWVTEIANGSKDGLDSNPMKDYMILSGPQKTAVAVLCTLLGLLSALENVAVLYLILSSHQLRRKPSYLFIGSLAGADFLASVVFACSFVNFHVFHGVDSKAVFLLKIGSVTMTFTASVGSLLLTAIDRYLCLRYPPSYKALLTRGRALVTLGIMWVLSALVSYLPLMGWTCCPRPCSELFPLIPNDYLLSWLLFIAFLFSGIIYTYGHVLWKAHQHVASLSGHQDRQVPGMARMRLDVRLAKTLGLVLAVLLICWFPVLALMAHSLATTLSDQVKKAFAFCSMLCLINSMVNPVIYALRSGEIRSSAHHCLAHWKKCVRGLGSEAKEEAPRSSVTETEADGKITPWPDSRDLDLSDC
Chain of Cannabinoid receptor 1 (Rattus norvegicus) (P20272 whole entry): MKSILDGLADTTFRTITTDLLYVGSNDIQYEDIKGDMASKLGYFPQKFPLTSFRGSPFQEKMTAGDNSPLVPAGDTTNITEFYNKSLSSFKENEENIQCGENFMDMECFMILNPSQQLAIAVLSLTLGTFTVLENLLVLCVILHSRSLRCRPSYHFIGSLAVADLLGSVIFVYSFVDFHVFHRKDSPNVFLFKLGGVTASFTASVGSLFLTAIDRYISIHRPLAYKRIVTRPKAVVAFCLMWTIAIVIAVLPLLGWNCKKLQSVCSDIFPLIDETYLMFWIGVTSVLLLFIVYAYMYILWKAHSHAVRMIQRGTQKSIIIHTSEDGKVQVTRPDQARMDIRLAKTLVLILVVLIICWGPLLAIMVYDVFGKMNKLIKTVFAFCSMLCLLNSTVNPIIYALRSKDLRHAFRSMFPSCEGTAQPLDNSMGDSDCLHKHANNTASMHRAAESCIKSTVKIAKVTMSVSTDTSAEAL
T2 sequence (P20272 whole entry): as above

Regarding `CCCCCCC(C)(C)c1cc(O)c2c(c1)OC(C)(C)c1ccc(C)cc1-2`, the EC50 in assay [1] was found to be 0.79 nM; in assay [2], 0.18 nM. For the same compound, the Ki in assay [3] is 3.3 nM; in assay [4] it was 1.5 nM; in assay [5] it was 2 nM.
For `CCCCCCC(C)(C)c1cc(O)c2c(c1)OC(C)(C)c1ccc(CO)cc1-2` the same measures were 0.208 nM, 0.056 nM, 1.8 nM, 0.2 nM and 0.1 nM.
For the compound `CCCCCc1cc(O)c2c(c1)OC(C)(C)c1ccc(C(=O)O)cc1-2`, the inhibition was 6% in assay [6], 23% in assay [7], < 2% in assay [8] and 10% in [9]. The compound also gave a Ki in assay [3] of 602 nM.
Take `CCCCCc1cc(OC(C)=O)c2c(c1)OC(C)(C)c1ccc(C(=O)O)cc1-2`: the inhibition in assay [6] amounted to 2%; in [10], 19%; in assay [11], 35%; in [9] it was 3%. Moreover, the Ki in assay [3] was > 10000 nM.
Regarding `CCCCCCC(C)(C)c1cc(O)c2c(c1)OC(C)(C)c1ccc(C(=O)O)cc1-2`, the EC50 came to 5.4 nM in assay [1] and 2.4 nM in assay [2]. In addition, the results for the Ki in assay [3], in assay [4] and in assay [5] were 6.1 nM, 4.8 nM and 6.1 nM, respectively.
For `CCCCCCC(C)(C)c1cc(O)c2c(c1)OC(C)(C)[C@@H]1CC=C(C(=O)O)CC21` (some centres undefined), the results for the EC50 in assay [1] and in assay [2] were 116 nM and 927 nM, respectively. In addition, the Ki in [3] was determined as 481 nM; in assay [4], 170 nM; in [5], 32.3 nM.
For `CCCCCCC(C)(C)c1cc(OC(C)=O)c2c(c1)OC(C)(C)c1ccc(C(=O)O)cc1-2` the same measures were 39.3 nM, 13.3 nM, 556 nM, 17.3 nM and 49.8 nM.
For `CCCCCCC(C)(C)c1cc(O)c2c(c1)OC(C)(C)[C@@H]1CCC(C)=CC21` (some centres undefined) the same measures were 1.01 nM, 0.58 nM, 2.6 nM, 0.199 nM and 0.241 nM.
In the case of `CCCCCc1cc(O)c2c(c1)oc(=O)c1ccc(C)cc12`, the values for the inhibition in assay [7], in [8] and in assay [9] were 14%, 14% and 7%, respectively. The inhibition entry in assay [12] is “inactive”. Also, the inhibitory constant (Ki) in assay [3] is > 10000 nM.
`CCCCCc1cc(O)c2c(c1)OC(C)(C)[C@@H]1CCC(C)=C[C@@H]21` gave an inhibition in assay [6] of 21%.
In the case of `CCCCCCC(C)(C)c1cc(O)c2c(c1)oc(=O)c1ccc(C)cc12`, the EC50 amounted to 4.6 nM in assay [1] and 9.6 nM in assay [2]. In addition, the figures for the Ki in assay [3], in assay [4] and in assay [5] were 72.5 nM, 17.3 nM and 32.7 nM, respectively.
In [6], `CCCCCc1cc(O)c2c(c1)OC(C)(C)[C@@H]1CC=C(CO)CC21` (some centres undefined) registered an inhibition of 19%. Besides, the EC50 in assay [2] was 39.9 nM. Also, the Ki in [3] was found to be 33.4 nM; in assay [4], 7.4 nM; in [5], 25.8 nM.
Take `CCCCCc1cc(O)c2c(c1)OC(C)(C)c1ccc(C)cc1-2` [CANNABINOL]: the values for the EC50 in assay [1] and in assay [2] were 261 nM and 120 nM, respectively. In addition, the Ki was 211 nM in assay [13], 392 nM in assay [14] and 126 nM in assay [15].
For the compound `CCCCCCC(C)(C)c1cc(OC(C)=O)c2c(c1)OC(C)(C)[C@@H]1CC=C(C(=O)O)CC21` (some centres undefined), the inhibition was determined as 27% in assay [6], 9% in [16] and 11% in assay [17]. In addition, in assay [18], the inhibition result was “inactive”. Besides, the Ki in [3] was > 10000 nM.
Compound `CCCCCCC(C)(C)c1cc(O)c2c(c1)OC(C)(C)[C@@H]1CC=C(CO)CC21` (some centres undefined) showed a concentration for a half-maximal effect (EC50) in assay [2] of 0.035 nM. Besides, the Ki amounted to 0.19 nM in assay [3] and 0.1 nM in assay [5].
The compound `CCCCCc1cc(O)c2c(c1)OC(C)(C)c1ccc(CO)cc1-2` registered an inhibition in assay [6] of 20%. Besides, the EC50 in assay [2] was determined as 58.1 nM. For the same compound, the results for the Ki in [3], in assay [4] and in assay [5] were 189 nM, 26.6 nM and 38 nM, respectively.
